Data published in publication PMC7060200, “Selective Binding of HSC70 and its Co-Chaperones to Structural Hotspots on CFTR” (Scientific Reports, 2020).
pKd: −log10 of the molar value. Ends that are not written are not given here.

Experiments:
HSC70 [1] = biological target: T1, HSC70 (Homo sapiens, UniProt P11142); experiment: ELISA binding of HSC70 to immobilized biotinylated CFTR peptides
T1 construct: made in house
Protocol: (§1) HSC70, DJA1 and DJA2 were purified as His-tagged proteins, as described. HSC70 was also amplified by PCR with an N-terminal FLAG tag, inserted into pPROEXHTa (Invitrogen) and purified as described. HSC70 was stored in 100 mM KOAc, 20 mM HEPES-KOH pH 7.5, 5 mM MgOAC2 (buffer G), DJA1 and DJA2 in 500 mM NaCl, 20 mM HEPES-KOH pH 7.5, 5 mM MgOAC2 (buffer H). Avi-tagged CFTR NBD1 was purified as described.
(§2) The CFTR peptide library was designed as 15-mers with 10-residue overlaps covering the cytosolic sequences as in Fig. 1a and Supplemental Table S1. Synthetic peptides (Mimotopes, PepSet purity) contained an N-terminal biotin followed by linker sequence GSGS and the 15-mer sequence. […] Peptides were reconstituted in DMSO or water.
(§3) For peptide binding, streptavidin-coated black 96-well plates (Nunc Maxisorp, ThermoFisher) were pre-rinsed with PBS containing 0.05% Tween-20 (PBST), and 5 µM biotinylated peptides in 100 µl PBS were bound overnnight at 4 °C with agitation. Plates were washed with PBST and blocked with PBST containing 0.5% bovine serum albumin (BSA) for 1 h. After removal of blocking solution, 100 µl reactions containing chaperones at indicated concentrations were bound for 45 min at room temperature with agitation. HSC70 reactions were in buffer G containing 1 mM ATP, DJA1 and DJA2 reactions were in buffer H. For competition assays, chaperones and peptides were mixed at indicated concentrations immediately before the reactions were added to the plates. For detections, the plates were washed in PBST and 5 μM His-Probe-HRP conjugate (ThermoFisher) in 100 μL PBST added for 15 min with agitation. After washing in PBST, plates were developed using Amplex Red (ThermoFisher) according to manufacturer’s instructions, in a fluorescence plate reader (Tecan M1000).
(§4) Affinities were determined separately from binding curves and from competition curves. Data from binding of chaperones to immobilized peptides (Fig. 2a,b and Supplemental Fig. S2a–c) were fit to the equation 1/(1 − i) = (C/i)/Kd^B − b, where i is the relative saturation, C is the chaperone concentration (1 μM), Kd^B is the apparent dissociation constant from the binding data. In the plot of 1/(1 − i) against (C/i), the slope is 1/Kd^B, and −b is the intercept. […] In the plot of bi + (C/Kd^B)/i over D, the slope is 1/Kd^C, and e is the intercept. The amount of chaperone bound in the absence of competitor was set as i = 1.
(§5) Established statistical methods[71]–[73] were used to analyze the data for chaperone binding to the peptide library. First, biological and statistical outliers were identified with the Tukey method in two rounds, for biological and then statistical outliers. […] Binding data were represented as multiples of the standard deviations from the normal means. Binding in the presence of competitor peptides were shown as a fraction of binding in the absence of competitor, or the fraction competed calculated as 1 – fraction bound. Values were compared using a two-tailed unpaired Student’s t-test assuming unequal variance.

DJA1 [2] = biological target: T2, DJA1 (Homo sapiens, UniProt P31689); experiment: ELISA binding of DJA1 to immobilized biotinylated CFTR peptides; conditions: 2 μM DJA1, absence of ATP, immobilized 15-mer; n ≥ 3
T2 construct: made in house
Protocol: as §1, §2, §3, §4, §5

DJA2 [3] = biological target: T3, DJA2 (Homo sapiens, UniProt O60884); experiment: ELISA binding of DJA2 to immobilized biotinylated CFTR peptides; conditions: 2 μM DJA2, absence of ATP, immobilized 15-mer; n ≥ 3
T3 construct: made in house
T3 sequence (O60884 whole entry): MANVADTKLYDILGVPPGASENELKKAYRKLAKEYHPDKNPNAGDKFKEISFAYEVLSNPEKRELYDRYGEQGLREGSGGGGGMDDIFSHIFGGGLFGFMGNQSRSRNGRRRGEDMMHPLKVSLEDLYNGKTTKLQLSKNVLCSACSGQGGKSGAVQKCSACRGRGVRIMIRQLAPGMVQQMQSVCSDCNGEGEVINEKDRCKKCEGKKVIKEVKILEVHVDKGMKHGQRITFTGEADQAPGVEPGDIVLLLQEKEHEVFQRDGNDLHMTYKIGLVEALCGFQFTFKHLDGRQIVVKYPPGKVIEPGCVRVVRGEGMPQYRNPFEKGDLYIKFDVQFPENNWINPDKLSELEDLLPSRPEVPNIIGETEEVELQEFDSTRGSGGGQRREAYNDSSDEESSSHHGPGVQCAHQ
Protocol: as §1, §2, §3, §4, §5

HSC70 [4] = biological target: T1, HSC70; experiment: ELISA binding of HSC70 to immobilized CFTR NBD1 and competition by soluble peptides; conditions: 1 μM HSC70, with ATP, soluble peptide, Fig. 4a; n = 5
Protocol: as §1
For NBD1 binding, 100 nM of strep-tagged NBD1 in 100 µl of 150 mM NaCl, 50 mM Na2HPO4 pH 7.5, 1 mM ATP, and 40 µM DTT (buffer N), was bound to streptavidin plates for 1 hour at 4 °C with agitation. Plates were washed with PBST and incubated in buffer N at 30 °C in a water bath for 5 min. Then, plates were blocked in PBST containing 0.5% BSA, followed by the addition of HSC70 binding reactions, and detection as above.

HSC70 and DJA2 = experiment: Refolding of guanidine denatured luciferase by HSC70 and DJA2; format: biochemical; conditions: 4 μM each HSC70 and DJA2, 100 nM luciferase, 100 μM peptide (25-fold excess), 60 min, % of control without peptide; n = 3
Protocol: Refolding of guanidine denatured luciferase with HSC70 and DJA2 was as described. […] To monitor refolding, luciferase activity was measured in a luminometer (Berthold Sirius) with the luciferase assay kit (Promega). For co-IPs, 20 μL reaction aliquots were stopped by dilution at 4 °C to 500 μL with buffer containing 0.1% Triton X-100, 0.2% BSA and 0.04 mg/mL apyrase (Sigma). Reactions were incubated with FLAG-M2 magnetic beads (Sigma) for 1 h at 4 °C with agitation, then beads were isolated and washed with buffer G containing 0.1% Triton X-100, and eluted with 40 μL of 1 μg/mL FLAG peptide in the same buffer. Samples were analyzed on Western blots detected with antibodies against luciferase (Sigma, L2164) and the FLAG-M2 tag (Sigma, F1804).

Flag-tagged HSC70 = experiment: Co-immunoprecipitation of luciferase with Flag-tagged HSC70 during refolding; format: biochemical; conditions: refolding reactions stopped at 0 or 15 min, FLAG IP, Western blot, Fig. 4d
Protocol: as §1
Refolding of guanidine denatured luciferase with HSC70 and DJA2 was as described. 100 µl reactions contained 4 μM each of HSC70 and DJA2, 2 mM ATP and […] in buffer G, with the indicated concentrations of peptides. To monitor refolding, luciferase activity was measured in a luminometer (Berthold Sirius) with the luciferase assay kit (Promega). For co-IPs, 20 μL reaction aliquots were stopped by dilution at 4 °C to 500 μL with buffer containing 0.1% Triton X-100, 0.2% BSA and 0.04 mg/mL apyrase (Sigma). Reactions were incubated with FLAG-M2 magnetic beads (Sigma) for 1 h at 4 °C with agitation, then beads were isolated and washed with buffer G containing 0.1% Triton X-100, and eluted with 40 μL of 1 μg/mL FLAG peptide in the same buffer. Samples were analyzed on Western blots detected with antibodies against luciferase (Sigma, L2164) and the FLAG-M2 tag (Sigma, F1804).

HSC70 [5] = biological target: T1, HSC70; experiment: Competition ELISA: soluble peptide vs HSC70 binding to immobilized 1097-L
Protocol: as §1, §2, §3, §4, §5

DJA1 [6] = biological target: T2, DJA1; experiment: Competition ELISA: soluble peptide vs DJA1 binding to immobilized 1097-L
Protocol: as §1, §2, §3, §4, §5

DJA2 [7] = biological target: T3, DJA2; experiment: Competition ELISA: soluble peptide vs DJA2 binding to immobilized 1097-L
Protocol: as §1, §2, §3, §4, §5

HSC70 [8] = biological target: T1, HSC70; experiment: Fluorescent peptide binding, HSC70; conditions: 0.5 μM FAM-1092-S, buffer G, 45 min, ex 492 nm / em 520 nm, one site total binding fit, n ≥ 8
Description: (§6) The CFTR peptide library was designed as 15-mers with 10-residue overlaps covering the cytosolic sequences as in Fig. 1a and Supplemental Table S1. Synthetic peptides (Mimotopes, PepSet purity) contained an N-terminal biotin followed by linker sequence GSGS and the 15-mer sequence. Soluble peptides (Lifetein) were synthesized unmodified at >85% purity, sequences in Supplemental Table S1 and S2. Fluorescent peptide 1092-S was fused to the linker sequence SG and an N-terminal 6-carboxyfluorescein (FAM) label. Peptides were reconstituted in DMSO or water.
(§7) 0.5 μM FAM-1092-S was incubated with chaperones at the indicated concentrations for 45 min. HSC70 was incubated in buffer G, DJA1 and DJA2 were incubated in buffer H. The fluorescence signal for each condition was measured at 492 nm wavelength excitation, 520 nm wavelength emission, and 5 nm slit width, using a Horiba FluoroMax spectrofluorometer. Data were collected with the FluorEssence software (Horiba). Dissociation constants (Kd) were determined by nonlinear regression fit of the averaged data to a one site – total binding model, using GraphPad Prism 8. The 95% confidence intervals and R^2 correlation coefficients are reported (Supplemental Table S3).

DJA1 [9] = biological target: T2, DJA1; experiment: Fluorescent peptide binding, DJA1; conditions: 0.5 μM FAM-1092-S, buffer H, 45 min, ex 492 nm / em 520 nm, one site total binding fit, n ≥ 8
Description: as §6, §7

DJA2 [10] = biological target: T3, DJA2; experiment: Fluorescent peptide binding, DJA2; conditions: 0.5 μM FAM-1092-S, buffer H, 45 min, ex 492 nm / em 520 nm, one site total binding fit, n ≥ 8
Description: as §6, §7

T1 sequence (P11142 whole entry): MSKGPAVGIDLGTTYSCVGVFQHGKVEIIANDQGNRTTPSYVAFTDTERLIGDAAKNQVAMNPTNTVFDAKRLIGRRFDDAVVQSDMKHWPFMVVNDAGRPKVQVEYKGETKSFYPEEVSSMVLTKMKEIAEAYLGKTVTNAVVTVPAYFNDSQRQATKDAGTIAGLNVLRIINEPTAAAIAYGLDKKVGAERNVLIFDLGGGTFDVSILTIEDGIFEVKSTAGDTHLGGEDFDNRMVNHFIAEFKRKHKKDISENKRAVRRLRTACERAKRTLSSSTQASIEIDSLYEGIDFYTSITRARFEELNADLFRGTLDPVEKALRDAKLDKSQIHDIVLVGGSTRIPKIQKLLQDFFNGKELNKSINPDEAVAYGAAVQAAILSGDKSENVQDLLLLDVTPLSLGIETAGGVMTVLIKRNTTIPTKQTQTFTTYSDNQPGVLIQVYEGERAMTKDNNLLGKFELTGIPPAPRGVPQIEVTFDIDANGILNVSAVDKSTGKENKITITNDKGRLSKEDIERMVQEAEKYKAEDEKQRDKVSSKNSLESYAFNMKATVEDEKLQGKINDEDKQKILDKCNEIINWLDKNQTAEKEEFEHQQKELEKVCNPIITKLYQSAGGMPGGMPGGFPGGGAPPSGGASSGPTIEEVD

Substance: 733-L: R 15-mer 726-740, negative control (EDSDEPLERRLSLVP; UniProt P13569 726-740, looked up, fragment) [Peptide 733-L]
- binding in peptide library screen, HSC70 (in words) (HSC70 [1]; 2 μM HSC70, with ATP, immobilized 15-mer, n ≥ 3): low binding
- titration binding / saturation, HSC70 (in words) (HSC70 [1]; HSC70 titrated to 1.5 μM on immobilized peptide, Fig. 2a, S2a, n ≥ 6): low
- binding in peptide library screen, DJA1 (in words) (DJA1 [2]): low binding
- binding in peptide library screen, DJA2 (in words) (DJA2 [3]): low binding
- competition of HSC70 binding to immobilized NBD1 (in words) (HSC70 [4]): did not
- effect on luciferase refolding (in words) (HSC70 and DJA2): no effect
- luciferase bound to HSC70 in presence of peptide (in words) (Flag-tagged HSC70): luciferase was substantially bound

Substance: NWFLYLSTL [Peptide 1092-S]
- competition of HSC70 binding to immobilized 1097-L (in words) (HSC70 [5]; 1 μM HSC70, soluble peptide up to 100 μM): competed all three chaperones
- pKd (HSC70 [5]; read-out: Kd from competition curves, HSC70): 5.90
- DJA1 binding site by competition screen (in words) (DJA1 [6]; 1 μM DJA1, 100 μM soluble peptide, Fig. 3c/5, cutoff twice SD of 733-L, n ≥ 4): one of the few sites also bound by DJA1
- competition of DJA1 binding to immobilized 1097-L (in words) (DJA1 [6]; 1 μM DJA1, soluble peptide up to 100 μM): competed all three chaperones
- pKd (DJA1 [6]; read-out: Kd from competition curves, DJA1): 5.26
- pKd (DJA2 [7]): 5.58
- competition of DJA2 binding to immobilized 1097-L (in words) (DJA2 [7]; 1 μM DJA2, soluble peptide up to 100 μM): competed all three chaperones
- Kd from fluorescence binding, HSC70 (HSC70 [8]): single micromolar range
- pKd (HSC70 [8]; read-out: Kd from fluorescence binding, HSC70): 5.21
- Kd from fluorescence binding, DJA1 (DJA1 [9]): single micromolar range
- pKd (DJA1 [9]; read-out: Kd from fluorescence binding, DJA1): 5.40
- Kd from fluorescence binding, DJA2 (DJA2 [10]): single micromolar range
- pKd (DJA2 [10]; read-out: Kd from fluorescence binding, DJA2): 5.07
- competition of HSC70 binding to immobilized NBD1 (in words) (HSC70 [4]): effective competitors
- effect on luciferase refolding (in words) (HSC70 and DJA2): inhibited refolding
